Measured values published in ChEMBL document CHEMBL5058646 (2022).

Columns and labels:
[1] = target: Homeodomain-interacting protein kinase 2 (Homo sapiens) (UniProt Q9H2X6); assay: HIPK2 SGC Tm panel (DSF); details: Compound concentration 20.0 uM
[2] = target: Alpha-1A adrenergic receptor (Homo sapiens) (UniProt P35348); details: Compound concentration 10.0 uM
[3] = target: T1, Zinc finger and BTB domain-containing protein 9 (Homo sapiens) (UniProt Q96C00); details: SUD4, Compound concentration 1.0 uM
T1 sequence (whole entry): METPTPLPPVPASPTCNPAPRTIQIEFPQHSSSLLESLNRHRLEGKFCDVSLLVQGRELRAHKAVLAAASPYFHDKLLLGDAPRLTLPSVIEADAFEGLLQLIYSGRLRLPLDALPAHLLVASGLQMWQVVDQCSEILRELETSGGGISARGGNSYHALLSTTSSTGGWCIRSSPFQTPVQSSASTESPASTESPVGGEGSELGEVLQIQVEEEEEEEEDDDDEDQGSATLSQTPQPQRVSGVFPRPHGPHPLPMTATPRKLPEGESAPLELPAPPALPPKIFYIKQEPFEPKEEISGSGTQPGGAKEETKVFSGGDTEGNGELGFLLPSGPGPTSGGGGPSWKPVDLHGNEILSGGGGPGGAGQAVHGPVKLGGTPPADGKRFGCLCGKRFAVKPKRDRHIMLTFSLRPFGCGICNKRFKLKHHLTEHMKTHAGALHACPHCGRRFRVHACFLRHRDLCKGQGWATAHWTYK

[4] = target: T1, Zinc finger and BTB domain-containing protein 9 (Homo sapiens); details: SUD4, Compound concentration 1.0 uM; remark: listed apart in the source
[5] = target: T2, Zinc finger protein 131 (Homo sapiens) (UniProt P52739); details: OCI-Ly1, Compound concentration 1.0 uM
T2 sequence (whole entry): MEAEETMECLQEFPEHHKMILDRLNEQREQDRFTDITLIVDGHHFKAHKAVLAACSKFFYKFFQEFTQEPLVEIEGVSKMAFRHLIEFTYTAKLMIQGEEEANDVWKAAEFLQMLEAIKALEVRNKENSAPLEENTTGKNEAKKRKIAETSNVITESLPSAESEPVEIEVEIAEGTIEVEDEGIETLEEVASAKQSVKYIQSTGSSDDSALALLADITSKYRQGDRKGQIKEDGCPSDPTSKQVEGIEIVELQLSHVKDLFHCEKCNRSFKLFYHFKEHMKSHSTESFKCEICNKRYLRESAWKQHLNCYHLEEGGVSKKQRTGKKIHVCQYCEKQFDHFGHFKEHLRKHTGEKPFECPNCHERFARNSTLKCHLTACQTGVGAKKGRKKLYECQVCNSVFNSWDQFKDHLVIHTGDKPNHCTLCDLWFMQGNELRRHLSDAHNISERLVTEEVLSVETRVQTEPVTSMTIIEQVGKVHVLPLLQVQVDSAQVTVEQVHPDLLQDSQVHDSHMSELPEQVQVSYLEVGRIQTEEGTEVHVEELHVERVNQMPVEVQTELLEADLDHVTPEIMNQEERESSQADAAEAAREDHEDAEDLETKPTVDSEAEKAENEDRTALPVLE

[6] = target: T3, Zinc finger and BTB domain-containing protein 24 (Homo sapiens) (UniProt O43167); details: SUD4, Compound concentration 1.0 uM
T3 sequence (whole entry): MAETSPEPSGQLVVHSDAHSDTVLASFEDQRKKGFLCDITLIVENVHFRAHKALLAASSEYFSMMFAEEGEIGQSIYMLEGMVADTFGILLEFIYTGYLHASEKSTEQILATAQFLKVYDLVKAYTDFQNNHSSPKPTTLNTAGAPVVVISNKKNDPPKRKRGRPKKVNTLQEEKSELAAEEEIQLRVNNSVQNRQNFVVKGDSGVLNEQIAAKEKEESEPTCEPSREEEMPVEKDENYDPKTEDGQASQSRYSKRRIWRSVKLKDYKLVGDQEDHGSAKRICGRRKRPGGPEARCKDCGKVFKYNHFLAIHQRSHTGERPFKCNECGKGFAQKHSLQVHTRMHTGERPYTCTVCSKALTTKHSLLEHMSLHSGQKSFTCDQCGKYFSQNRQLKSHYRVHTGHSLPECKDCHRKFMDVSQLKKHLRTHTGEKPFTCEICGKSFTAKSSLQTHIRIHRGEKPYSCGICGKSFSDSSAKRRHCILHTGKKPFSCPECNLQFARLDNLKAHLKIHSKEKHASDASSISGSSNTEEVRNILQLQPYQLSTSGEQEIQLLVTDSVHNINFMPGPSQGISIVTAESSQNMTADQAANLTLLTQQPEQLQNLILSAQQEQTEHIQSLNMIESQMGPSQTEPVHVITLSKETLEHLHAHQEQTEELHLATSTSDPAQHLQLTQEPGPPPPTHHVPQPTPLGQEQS

[7] = target: Serine/threonine-protein kinase DCLK1 (Homo sapiens) (UniProt O15075); assay: DCAMKL1 SGC Tm panel (DSF); details: Compound concentration 20.0 uM
[8] = target: T4, Telomere zinc finger-associated protein (Homo sapiens) (UniProt P10074); details: OCI-Ly1, Compound concentration 1.0 uM
T4 sequence (whole entry): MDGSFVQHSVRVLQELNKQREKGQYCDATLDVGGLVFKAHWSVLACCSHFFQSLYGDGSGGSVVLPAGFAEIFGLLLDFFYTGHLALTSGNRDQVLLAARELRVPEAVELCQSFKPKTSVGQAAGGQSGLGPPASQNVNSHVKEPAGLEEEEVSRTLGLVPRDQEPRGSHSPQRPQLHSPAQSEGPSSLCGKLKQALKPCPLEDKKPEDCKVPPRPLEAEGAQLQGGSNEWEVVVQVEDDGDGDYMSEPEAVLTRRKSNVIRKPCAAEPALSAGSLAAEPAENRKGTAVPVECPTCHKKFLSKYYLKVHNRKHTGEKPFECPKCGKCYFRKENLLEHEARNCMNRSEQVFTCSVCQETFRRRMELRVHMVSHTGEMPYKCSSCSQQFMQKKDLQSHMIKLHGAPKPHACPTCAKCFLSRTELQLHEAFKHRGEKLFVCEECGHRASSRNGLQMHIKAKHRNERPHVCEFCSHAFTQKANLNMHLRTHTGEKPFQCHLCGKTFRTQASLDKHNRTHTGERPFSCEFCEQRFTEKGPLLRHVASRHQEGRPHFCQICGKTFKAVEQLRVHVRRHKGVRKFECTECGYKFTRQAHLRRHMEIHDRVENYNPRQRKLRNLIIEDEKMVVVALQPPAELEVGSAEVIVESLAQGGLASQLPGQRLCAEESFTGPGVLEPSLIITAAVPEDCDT

[9] = target: Serine/threonine-protein kinase ULK1 (Homo sapiens) (UniProt O75385); assay: ULK1 SGC Tm panel (DSF); details: Compound concentration 20.0 uM
[10] = target: Zinc finger and BTB domain-containing protein 21 (Homo sapiens) (UniProt Q9ULJ3); details: SUD4, Compound concentration 1.0 uM
[11] = target: Beta-1 adrenergic receptor (Homo sapiens) (UniProt P08588); details: Compound concentration 10.0 uM
Chain of Beta-1 adrenergic receptor (Homo sapiens) (P08588 whole entry, looked up): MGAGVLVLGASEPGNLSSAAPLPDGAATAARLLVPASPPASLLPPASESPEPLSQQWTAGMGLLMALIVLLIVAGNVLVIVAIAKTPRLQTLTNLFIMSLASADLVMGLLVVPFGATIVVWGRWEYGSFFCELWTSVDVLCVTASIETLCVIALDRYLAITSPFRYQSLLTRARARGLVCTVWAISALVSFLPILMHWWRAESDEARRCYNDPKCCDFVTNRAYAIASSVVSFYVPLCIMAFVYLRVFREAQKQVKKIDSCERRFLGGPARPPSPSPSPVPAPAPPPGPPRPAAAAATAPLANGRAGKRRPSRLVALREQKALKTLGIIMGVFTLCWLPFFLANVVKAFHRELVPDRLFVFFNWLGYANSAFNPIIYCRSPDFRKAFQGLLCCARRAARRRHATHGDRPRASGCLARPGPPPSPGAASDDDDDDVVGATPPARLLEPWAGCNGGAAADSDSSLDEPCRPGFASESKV

Chain of Zinc finger and BTB domain-containing protein 21 (Homo sapiens) (Q9ULJ3 whole entry, the tested form may be a part): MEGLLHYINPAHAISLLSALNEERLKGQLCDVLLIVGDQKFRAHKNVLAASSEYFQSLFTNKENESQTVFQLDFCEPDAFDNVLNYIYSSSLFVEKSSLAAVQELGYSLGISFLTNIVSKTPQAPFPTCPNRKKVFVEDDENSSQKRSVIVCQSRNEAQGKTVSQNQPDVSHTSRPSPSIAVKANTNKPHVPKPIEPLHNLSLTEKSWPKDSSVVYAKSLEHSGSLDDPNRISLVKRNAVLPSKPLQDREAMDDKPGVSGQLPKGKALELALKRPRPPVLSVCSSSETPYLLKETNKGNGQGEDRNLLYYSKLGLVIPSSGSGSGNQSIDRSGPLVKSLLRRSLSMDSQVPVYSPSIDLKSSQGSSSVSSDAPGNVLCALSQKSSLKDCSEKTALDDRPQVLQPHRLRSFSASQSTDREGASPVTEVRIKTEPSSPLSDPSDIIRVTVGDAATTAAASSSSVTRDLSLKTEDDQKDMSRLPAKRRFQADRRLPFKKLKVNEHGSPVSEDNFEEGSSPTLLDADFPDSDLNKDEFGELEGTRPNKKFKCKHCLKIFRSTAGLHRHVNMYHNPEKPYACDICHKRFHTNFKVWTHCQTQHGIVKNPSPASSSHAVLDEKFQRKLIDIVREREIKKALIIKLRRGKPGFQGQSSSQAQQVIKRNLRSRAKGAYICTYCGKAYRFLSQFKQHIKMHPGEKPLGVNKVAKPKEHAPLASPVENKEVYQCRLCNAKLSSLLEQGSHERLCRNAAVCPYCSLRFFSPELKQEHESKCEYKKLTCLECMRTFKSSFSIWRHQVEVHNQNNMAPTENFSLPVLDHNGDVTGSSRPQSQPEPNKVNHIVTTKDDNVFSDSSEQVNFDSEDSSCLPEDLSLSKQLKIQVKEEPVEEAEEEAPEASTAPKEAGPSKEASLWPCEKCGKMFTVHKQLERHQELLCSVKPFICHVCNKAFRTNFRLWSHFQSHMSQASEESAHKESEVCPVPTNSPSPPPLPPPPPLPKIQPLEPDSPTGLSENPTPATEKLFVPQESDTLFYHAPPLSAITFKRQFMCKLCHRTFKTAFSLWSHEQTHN
Chain of Serine/threonine-protein kinase DCLK1 (Homo sapiens) (O15075 whole entry): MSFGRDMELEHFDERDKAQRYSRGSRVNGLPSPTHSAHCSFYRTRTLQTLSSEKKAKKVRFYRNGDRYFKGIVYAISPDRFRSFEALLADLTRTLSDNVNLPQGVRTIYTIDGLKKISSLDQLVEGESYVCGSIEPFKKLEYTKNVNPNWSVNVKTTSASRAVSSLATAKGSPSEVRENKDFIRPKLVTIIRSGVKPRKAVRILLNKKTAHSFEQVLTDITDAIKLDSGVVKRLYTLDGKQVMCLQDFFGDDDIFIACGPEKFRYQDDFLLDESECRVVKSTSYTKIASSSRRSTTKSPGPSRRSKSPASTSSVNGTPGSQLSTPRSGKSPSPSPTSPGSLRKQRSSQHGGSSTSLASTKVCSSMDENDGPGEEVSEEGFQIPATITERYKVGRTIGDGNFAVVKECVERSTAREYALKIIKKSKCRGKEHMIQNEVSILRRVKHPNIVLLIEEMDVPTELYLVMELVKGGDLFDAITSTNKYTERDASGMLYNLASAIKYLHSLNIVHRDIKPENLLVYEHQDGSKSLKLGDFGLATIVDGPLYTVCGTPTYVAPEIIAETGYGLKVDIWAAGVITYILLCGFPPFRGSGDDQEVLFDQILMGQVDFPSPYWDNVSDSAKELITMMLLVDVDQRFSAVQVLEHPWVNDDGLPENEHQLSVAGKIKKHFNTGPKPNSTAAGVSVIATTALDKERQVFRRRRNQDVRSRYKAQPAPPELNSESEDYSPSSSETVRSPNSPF
Chain of Alpha-1A adrenergic receptor (Homo sapiens) (P35348 whole entry, the tested form may be a part): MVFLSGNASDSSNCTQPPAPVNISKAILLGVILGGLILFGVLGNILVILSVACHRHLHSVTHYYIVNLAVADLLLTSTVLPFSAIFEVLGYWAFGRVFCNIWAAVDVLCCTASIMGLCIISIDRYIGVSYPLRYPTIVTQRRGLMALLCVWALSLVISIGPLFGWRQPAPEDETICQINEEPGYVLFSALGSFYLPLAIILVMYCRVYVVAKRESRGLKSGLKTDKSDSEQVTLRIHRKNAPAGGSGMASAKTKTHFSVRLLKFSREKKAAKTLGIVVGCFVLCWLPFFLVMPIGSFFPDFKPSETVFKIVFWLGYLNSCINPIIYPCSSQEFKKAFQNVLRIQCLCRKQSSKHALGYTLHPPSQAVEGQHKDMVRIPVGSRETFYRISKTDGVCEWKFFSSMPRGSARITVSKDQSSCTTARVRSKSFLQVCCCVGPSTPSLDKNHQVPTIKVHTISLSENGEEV
Chain of Serine/threonine-protein kinase ULK1 (Homo sapiens) (O75385 whole entry, the tested form may be a part): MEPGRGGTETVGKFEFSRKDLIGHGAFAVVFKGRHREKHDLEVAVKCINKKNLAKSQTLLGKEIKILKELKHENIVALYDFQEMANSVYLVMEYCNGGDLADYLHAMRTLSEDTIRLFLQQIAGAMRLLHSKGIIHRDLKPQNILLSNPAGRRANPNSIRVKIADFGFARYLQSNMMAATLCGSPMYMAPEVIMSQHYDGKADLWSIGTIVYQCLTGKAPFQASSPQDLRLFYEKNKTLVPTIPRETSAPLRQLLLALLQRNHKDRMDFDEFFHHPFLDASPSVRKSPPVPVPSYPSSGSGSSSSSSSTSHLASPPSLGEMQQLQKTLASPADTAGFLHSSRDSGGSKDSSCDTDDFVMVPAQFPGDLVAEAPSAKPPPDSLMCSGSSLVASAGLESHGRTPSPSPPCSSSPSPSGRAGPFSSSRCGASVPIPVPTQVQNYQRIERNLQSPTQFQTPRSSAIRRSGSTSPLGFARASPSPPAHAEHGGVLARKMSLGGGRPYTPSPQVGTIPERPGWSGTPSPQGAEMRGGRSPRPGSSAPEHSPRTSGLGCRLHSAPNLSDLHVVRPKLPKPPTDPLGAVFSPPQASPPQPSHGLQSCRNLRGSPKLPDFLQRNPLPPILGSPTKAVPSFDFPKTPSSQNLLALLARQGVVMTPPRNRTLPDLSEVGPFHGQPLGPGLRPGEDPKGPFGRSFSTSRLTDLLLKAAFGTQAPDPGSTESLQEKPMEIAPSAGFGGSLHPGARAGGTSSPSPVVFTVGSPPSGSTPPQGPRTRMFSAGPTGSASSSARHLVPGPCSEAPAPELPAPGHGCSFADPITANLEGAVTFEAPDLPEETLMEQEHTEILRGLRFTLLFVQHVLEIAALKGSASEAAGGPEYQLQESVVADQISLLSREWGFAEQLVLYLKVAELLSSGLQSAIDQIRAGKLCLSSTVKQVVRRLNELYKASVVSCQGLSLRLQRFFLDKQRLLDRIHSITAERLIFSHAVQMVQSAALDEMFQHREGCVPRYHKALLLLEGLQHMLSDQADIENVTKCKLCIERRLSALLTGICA
Chain of Homeodomain-interacting protein kinase 2 (Homo sapiens) (Q9H2X6 whole entry, looked up): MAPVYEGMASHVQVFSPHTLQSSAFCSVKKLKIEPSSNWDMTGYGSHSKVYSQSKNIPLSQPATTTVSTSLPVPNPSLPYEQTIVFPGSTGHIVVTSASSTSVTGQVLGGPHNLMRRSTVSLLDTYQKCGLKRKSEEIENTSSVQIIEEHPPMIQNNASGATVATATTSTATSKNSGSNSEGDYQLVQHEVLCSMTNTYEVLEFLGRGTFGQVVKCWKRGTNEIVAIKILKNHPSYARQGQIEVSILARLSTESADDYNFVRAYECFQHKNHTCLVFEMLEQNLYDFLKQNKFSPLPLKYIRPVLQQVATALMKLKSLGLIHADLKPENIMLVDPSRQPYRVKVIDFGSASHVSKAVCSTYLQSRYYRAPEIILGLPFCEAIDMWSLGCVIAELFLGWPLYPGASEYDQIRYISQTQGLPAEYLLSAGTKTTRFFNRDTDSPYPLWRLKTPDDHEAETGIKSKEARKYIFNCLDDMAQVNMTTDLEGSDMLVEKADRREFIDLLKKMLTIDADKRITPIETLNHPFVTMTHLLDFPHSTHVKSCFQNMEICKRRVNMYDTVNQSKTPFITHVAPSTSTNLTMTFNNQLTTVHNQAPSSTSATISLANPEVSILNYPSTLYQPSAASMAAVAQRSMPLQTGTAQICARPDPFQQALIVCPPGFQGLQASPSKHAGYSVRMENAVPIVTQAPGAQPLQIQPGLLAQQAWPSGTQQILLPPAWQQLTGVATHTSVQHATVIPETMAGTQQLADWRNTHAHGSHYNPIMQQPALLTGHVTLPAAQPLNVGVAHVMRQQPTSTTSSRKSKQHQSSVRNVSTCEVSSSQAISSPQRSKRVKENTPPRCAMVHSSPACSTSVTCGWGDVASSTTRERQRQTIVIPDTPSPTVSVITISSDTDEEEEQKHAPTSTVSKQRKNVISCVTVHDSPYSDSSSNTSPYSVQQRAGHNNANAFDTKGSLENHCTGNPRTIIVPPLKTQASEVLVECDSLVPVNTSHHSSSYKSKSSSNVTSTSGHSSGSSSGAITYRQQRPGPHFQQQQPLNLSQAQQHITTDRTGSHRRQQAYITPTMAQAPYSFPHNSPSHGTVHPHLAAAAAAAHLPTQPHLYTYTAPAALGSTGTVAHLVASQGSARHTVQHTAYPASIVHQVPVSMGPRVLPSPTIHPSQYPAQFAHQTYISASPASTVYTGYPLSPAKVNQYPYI

C[C@@H]1CN(c2ncc(Cl)c(Nc3ccc4c(c3)n(CCC(C)(C)O)c(=O)n4C)n2)C[C@H](C)C1(F)F
inactive: Tm [1] 43 °C | inhibition [2] 7.7% | LogFC [3] -0.0222 | LogFC [4] 0.0873 | LogFC [5] -0.712 | LogFC [6] 0.00149 | Tm [7] 42 °C | LogFC [8] 0.0229 | Tm [9] 41 °C | LogFC [10] 0.0103 | inhibition [11] -2.67%
